We go through twelve compounds from patent publication US20070043024A1, “Azacyclic compounds as inhibitors of sensory neurone specific channels” (priority 2003, published 2007).

T1 sequence (Q9Y5Y9 whole entry): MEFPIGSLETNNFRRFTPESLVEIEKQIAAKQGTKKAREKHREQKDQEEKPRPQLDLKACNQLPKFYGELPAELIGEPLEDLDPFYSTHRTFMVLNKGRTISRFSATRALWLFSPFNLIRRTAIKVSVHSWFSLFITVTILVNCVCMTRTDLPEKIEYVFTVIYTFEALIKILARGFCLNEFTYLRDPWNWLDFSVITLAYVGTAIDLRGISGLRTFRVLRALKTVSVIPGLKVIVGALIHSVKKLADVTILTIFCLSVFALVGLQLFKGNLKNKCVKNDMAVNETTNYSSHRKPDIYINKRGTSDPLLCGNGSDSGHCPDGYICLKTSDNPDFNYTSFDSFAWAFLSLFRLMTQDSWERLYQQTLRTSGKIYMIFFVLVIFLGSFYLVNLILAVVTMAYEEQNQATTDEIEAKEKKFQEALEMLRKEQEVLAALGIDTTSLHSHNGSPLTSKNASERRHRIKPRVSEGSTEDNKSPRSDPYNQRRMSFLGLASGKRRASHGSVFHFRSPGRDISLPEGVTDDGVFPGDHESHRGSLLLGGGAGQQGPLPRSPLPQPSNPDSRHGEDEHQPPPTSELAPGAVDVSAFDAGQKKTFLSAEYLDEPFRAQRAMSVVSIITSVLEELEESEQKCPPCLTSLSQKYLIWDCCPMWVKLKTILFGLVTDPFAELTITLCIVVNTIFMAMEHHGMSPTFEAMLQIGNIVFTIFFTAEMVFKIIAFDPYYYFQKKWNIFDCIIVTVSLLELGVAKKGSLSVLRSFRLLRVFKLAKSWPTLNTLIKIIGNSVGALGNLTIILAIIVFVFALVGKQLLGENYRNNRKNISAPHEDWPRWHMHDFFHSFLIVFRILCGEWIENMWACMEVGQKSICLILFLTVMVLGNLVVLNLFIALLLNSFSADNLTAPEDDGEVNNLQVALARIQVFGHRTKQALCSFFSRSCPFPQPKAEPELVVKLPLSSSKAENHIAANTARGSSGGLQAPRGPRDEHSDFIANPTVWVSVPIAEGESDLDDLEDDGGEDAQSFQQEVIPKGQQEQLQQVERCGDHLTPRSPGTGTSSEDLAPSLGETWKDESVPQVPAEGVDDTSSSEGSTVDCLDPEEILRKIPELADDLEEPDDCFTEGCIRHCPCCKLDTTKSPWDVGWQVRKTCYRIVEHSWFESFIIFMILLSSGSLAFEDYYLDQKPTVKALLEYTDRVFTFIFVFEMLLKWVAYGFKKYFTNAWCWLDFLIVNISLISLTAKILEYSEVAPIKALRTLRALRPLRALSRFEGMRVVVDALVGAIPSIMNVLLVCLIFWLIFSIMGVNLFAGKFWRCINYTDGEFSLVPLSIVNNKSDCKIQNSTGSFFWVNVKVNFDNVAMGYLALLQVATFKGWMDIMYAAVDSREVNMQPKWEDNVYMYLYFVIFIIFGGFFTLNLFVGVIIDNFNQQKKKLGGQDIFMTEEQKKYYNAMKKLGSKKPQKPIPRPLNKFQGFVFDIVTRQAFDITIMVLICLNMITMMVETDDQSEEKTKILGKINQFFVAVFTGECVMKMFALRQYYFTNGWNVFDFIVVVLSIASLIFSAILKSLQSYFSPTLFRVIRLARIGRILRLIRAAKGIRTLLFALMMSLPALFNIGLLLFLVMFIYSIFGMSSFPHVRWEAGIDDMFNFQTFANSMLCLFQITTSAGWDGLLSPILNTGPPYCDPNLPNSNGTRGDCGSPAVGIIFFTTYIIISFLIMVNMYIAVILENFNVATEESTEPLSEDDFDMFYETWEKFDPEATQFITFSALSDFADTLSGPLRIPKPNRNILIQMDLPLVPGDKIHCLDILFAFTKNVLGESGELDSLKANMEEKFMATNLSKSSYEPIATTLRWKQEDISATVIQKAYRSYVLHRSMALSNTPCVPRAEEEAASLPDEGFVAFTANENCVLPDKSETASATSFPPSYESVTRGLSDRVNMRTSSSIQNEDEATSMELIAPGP

The test has as its target T1, human Nav1.8 (hNav1.8) ion channel (Homo sapiens, UniProt Q9Y5Y9).
T1 construct: expressed in transfected cells
Kind of test: Inhibition of human Nav1.8 stably expressed in SH-SY-5Y cells (membrane potential dye fluorescence assay). Type of test: cell-based. The following applies: Table 1; SH-SY-5Y hNav1.8 cells, inhibition of membrane depolarisation, FLIPR membrane potential dye, 250 nM TTX, test concentration range 100 μM-0.05 μM; read-out: IC50.
Broadly, the IC50 is the midpoint of a concentration-inhibition curve. Turning to `COc1ccc2c(c1)CN(CC(=O)NCCC(c1ccccc1)c1ccccc1)CC2` [Example 86, N-(3,3-Diphenyl-propyl)-2-(7-methoxy-3,4-dihydro-1H-isoquinolin-2-yl)-acetamide], the half-inhibitory concentration (IC50) was 1460 nM.
Consider `COc1ccc2c(c1)CN(CC(=O)N(Cc1ccccc1)Cc1ccccc1)CC2` [Example 87, N,N-Dibenzyl-2-(7-methoxy-3,4-dihydro-1H-isoquinolin-2-yl)-acetamide], for which the IC50 was 1100 nM.
Under `COc1ccc2c(c1)CN(CCN(Cc1ccccc1)Cc1ccccc1)CC2` [Example 88, Dibenzyl-[2-(7-methoxy-3,4-dihydro-1H-isoquinolin-2-yl)-ethyl]-amine] stands 580 nM; under `COc1ccc2c(c1)CN(CCNCCC(c1ccccc1)c1ccccc1)CC2` [Example 89, (3,3-Diphenyl-propyl)-[2-(7-methoxy-3,4-dihydro-1H-isoquinolin-2-yl)-ethyl]amine], 490 nM.
As to `Oc1cccc2c1CN(Cc1c(F)cccc1Cl)CC2` [Example 91, 2-(2-Chloro-6-fluoro-benzyl)-1,2,3,4-tetrahydro-isoquinolin-8-ol], the IC50 turned out to be 6910 nM.
In the case of `Oc1cccc2c1CN(Cc1cc(F)ccc1F)CC2` [Example 92, 2-(2,5-Difluoro-benzyl)-1,2,3,4-tetrahydro-isoquinolin-8-ol], the IC50 worked out at 5270 nM.
The same measure for `Oc1cccc2c1CN(Cc1cc(F)cc(F)c1)CC2` [Example 93, 2-(3,5-Difluoro-benzyl)-1,2,3,4-tetrahydro-isoquinolin-8-ol]: 4720 nM.
The same measure for `Oc1cccc2c1CN(Cc1ccc(SC(F)(F)F)cc1)CC2` [Example 94, 2-(4-Trifluoromethylsulfanyl-benzyl)-1,2,3,4-tetrahydro-isoquinolin-8-ol]: 2170 nM; for `Oc1cccc2c1CN(Cc1cc(C(F)(F)F)cc(C(F)(F)F)c1)CC2` [Example 95, 2-(3,5-Bis-trifluoromethyl-benzyl)-1,2,3,4-tetrahydro-isoquinolin-8-ol]: 1710 nM.
The same measure for `Oc1cccc2c1CN(CCCC(c1ccc(F)cc1)c1ccc(F)cc1)CC2` [Example 96, 2-[4,4-Bis-(4-fluoro-phenyl)-butyl]-1,2,3,4-tetrahydro-isoquinolin-8-ol]: 1940 nM.
Regarding `Cc1cc(C(C)(CCCN2CCc3cccc(O)c3C2)c2cc(C)c(O)c(C)c2)cc(C)c1O` [Example 97, 2-[4,4-Bis-(4-hydroxy-3,5-dimethyl-phenyl)-pentyl]-1,2,3,4-tetrahydroisoquinolin-8-ol], the IC50 came to 1060 nM.
As to “N-Benzhydryl-2-(8-methoxy-3,4-dihydro-1H-isoquinolin-2-yl)-N-phenyl-acetamide [Example 21]”, the IC50 was 1250 nM.
